Results from patent publication US9371290B2, “Pyridazinone compounds” (BIOTIE THERAPIES CORPORATION, priority 2011, dated 2016).

How the values were obtained:
Total MAO = test: Total rat MAO activity (rat liver mitochondrial preparation, tyramine substrate); assay type: biochemical; settings: at 100 μM
Protocol: Rat MAO was prepared from rat liver by rinsing the 1 g liver sample several times in 14 ml KCl-EDTA-solution to remove all blood. Then 1 g liver sample was homogenized in 4 ml ice-cold potassium phosphate buffer (0.1 M, pH 7.4) with an Ultra-Turrax homogenizer (setting 11 000 rpm, 4×10 s). After centrifugation at 500 g for 10 min at 4° C. the supernatant was carefully withdrawn and was centrifuged at 12 300 g for 15 min at 4° C. The supernatant was discharged and sedimented mitochondria were resuspended in 4 ml fresh phosphate buffer and centrifuged as previously. The mitochondria were suspended in 4 ml phosphate buffer and homogenized with an Ultra-Turrax homogenizer (setting 11 000 rpm, 2×10 s). Mitochondrial preparate was aliquoted and stored at −70° C. Total MAO activity was measured in a similar way as for VAP-1 SSAO except that SSAO enzyme was replaced by MAO enzyme. To each well was added a predetermined amount of inhibitor if required. The amount of inhibitor varied in each assay but was generally at a final concentration of between 10 nM and 800 μM. Controls lacked inhibitor. The inhibitor was in a total volume of 20 μl in water. The following reagents were then added. 0.2 M potassium phosphate buffer pH 7.6 for a total reaction volume of 200 μl, 50 μl of freshly made chromogenic solution (as above) and 50 μl of MAO preparation (or needed amount of MAO). The plates were incubated for 30 min at 37° C. and the background absorbance measured at 490 nm using a Wallac Victor II multilabel counter. To initiate the enzyme reaction 20 μl of 5 mM tyramine (final concentration 0.5 mM) was added and the plate incubated for 1 h at 37° C. The increase in absorbance, reflecting MAO activity, was measured at 490 nm. Inhibition was presented as percent inhibition compared to control after correcting for background absorbance and IC50 values calculated using GraphPad Prism. Clorgyline and pargyline (inhibitors of MAO-A and -B respectively) at 0.5 μM were added to some wells as positive controls for MAO inhibition.

[1] = biological target: T1, Recombinant human VAP-1 SSAO (Homo sapiens, UniProt Q16853); test: In vitro inhibition of VAP-1 SSAO activity (coupled colorimetric method, benzylamine substrate); assay type: biochemical; settings: CHO cell lysate, 1 mM benzylamine, read-out: VAP-1 SSAO Inhibitory activity IC50
T1 construct: made in house; host or cells: Chinese Hamster Ovary (CHO) cells; clarified NP40 cell lysate used directly
T1 sequence (Q16853 1-763): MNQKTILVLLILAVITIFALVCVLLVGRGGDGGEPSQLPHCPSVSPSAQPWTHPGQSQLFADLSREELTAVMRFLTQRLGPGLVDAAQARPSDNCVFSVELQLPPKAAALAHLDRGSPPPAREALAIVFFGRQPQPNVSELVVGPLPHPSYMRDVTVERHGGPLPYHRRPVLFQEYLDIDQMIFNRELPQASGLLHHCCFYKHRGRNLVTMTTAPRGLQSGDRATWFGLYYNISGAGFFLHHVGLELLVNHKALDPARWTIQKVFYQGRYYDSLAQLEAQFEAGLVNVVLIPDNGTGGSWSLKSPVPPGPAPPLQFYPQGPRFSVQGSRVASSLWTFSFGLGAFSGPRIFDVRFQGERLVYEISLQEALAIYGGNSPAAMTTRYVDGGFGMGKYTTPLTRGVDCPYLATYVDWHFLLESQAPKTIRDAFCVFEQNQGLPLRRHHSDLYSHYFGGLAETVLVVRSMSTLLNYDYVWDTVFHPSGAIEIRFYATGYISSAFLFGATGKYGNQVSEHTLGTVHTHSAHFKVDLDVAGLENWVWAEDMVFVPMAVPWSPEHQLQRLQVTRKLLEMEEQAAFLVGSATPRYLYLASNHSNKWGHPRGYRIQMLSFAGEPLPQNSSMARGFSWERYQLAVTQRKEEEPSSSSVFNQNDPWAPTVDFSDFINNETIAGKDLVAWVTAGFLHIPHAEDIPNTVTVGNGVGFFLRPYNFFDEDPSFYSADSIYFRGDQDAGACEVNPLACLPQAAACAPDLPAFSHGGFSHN
Protocol: VAP-1 SSAO activity was measured using the coupled colorimetric method essentially as described for monoamine oxidase and related enzymes (Holt, A., et al., Anal. Biochem. 244:384-392 (1997)). Recombinant human VAP-1 SSAO expressed in Chinese Hamster Ovary (CHO) cells was used as a source of VAP-1 SSAO for activity measurements. Native CHO cells have negligible SSAO activity. These cells and their culture have previously been described (Smith, D. J., et al., J. Exp. Med. 188:17-27 (1998)). A cell lysate was prepared by suspending approximately 3.6×10^8 cells in 25 ml lysis buffer (150 mM NaCl, 10 mM Tris-Base pH 7.2, 1.5 mM MgCl2, 1% NP40) and incubating at 4° C. overnight on a rotating table. The lysate was clarified by centrifugation at 18 000 g for 5 min at room temperature and the supernatant used directly in the assay. The VAP-1 SSAO assay was performed in 96 well microtitre plates as follows. To each well was added a predetermined amount of inhibitor if required. The amount of inhibitor varied in each assay but was generally at a final concentration of between 1 nM and 50 μM. Controls lacked inhibitor. The inhibitor was in a total volume of 20 μl in water. The following reagents were then added. 0.2 M potassium phosphate buffer pH 7.6 to a total reaction volume of 200 μl, 50 μl of freshly made chromogenic solution containing 1 mM vanillic acid, 500 μM 4-aminoantipyrine and 8 U/ml horseradish peroxidase and an amount of CHO cell lysate containing VAP-1 SSAO that caused a change of 0.6 A490 per h. This was within the linear response range of the assay. The plates were incubated for 30 min at 37° C. and the background absorbance measured at 490 nm using a Wallac Victor II multilabel counter. To initiate the enzyme reaction 20 μl 10 mM benzylamine (final concentration=1 mM) was added and the plate incubated for 1 h at 37° C. The increase in absorbance, reflecting VAP-1 SSAO activity, was measured at 490 nm. Inhibition was presented as percent inhibition compared to control after correcting for background absorbance and IC50 values calculated using GraphPad Prism.

melting point [°C] | IC50 [1] [µM] | Structure (SMILES) | Total MAO Inhibitory activity (%) (Total MAO)
246 to 247 | 0.35 | O=c1cc(Oc2ccccc2)c(-c2nc[nH]n2)nn1-c1ccc(Cl)cc1 [Compound 25] | 0
195 to 197 | 236 | Cn1cc(-c2nn(-c3ccccc3)c(=O)cc2Oc2ccccc2)cn1 [Compound 17, 6-(1-methyl-1H-pyrazol-4-yl)-5-phenoxy-2-phenylpyridazin-3(2H)-one] | 22
251 to 252 | 0.044 | COc1ccc(Nc2cc(=O)n(-c3ccc(Cl)cc3)nc2-c2nc[nH]n2)cc1 [Compound 57, 2-(4-chlorophenyl)-5-[(4-methoxyphenyl)amino]-6-(1H-1,2,4-triazol-3-yl)-3(2H)-pyridazinone] | 5
195 to 197 | 16 | CCOc1cc(=O)n(-c2ccccc2)nc1-c1nc[nH]n1 [Compound 36] | 3
